Measured values as given in BigSolDB 2.1.

NC(N)=C([N+](=O)[O-])[N+](=O)[O-]
Conditions	solubility (mole fraction)
in 1,4-dioxane, 298.15 K	7.2e-05
in 1,4-dioxane, 314.15 K	0.000102
in 1,4-dioxane, 326.85 K	0.000143
in 1,4-dioxane, 339.65 K	0.000215
in 1,4-dioxane, 341.45 K	0.000257
in 1,4-dioxane, 347.55 K	0.000315
in 1,4-dioxane, 358.35 K	0.000357
in DEF, 298.35 K	0.0702
in DEF, 314.15 K	0.0824
in DEF, 324.95 K	0.0914
in DEF, 340.15 K	0.102
in DEF, 349.85 K	0.112
in DEF, 367.45 K	0.15
in DMF, 297.15 K	0.0946
in DMF, 310.75 K	0.109
in DMF, 327.85 K	0.122
in DMF, 340.15 K	0.136
in DMF, 352.75 K	0.148
in DMF, 361.05 K	0.161
in DMF, 365.15 K	0.173
in DMSO, 293.75 K	0.183
in DMSO, 303.85 K	0.188
in DMSO, 312.15 K	0.193
in DMSO, 319.15 K	0.204
in DMSO, 328.65 K	0.214
in DMSO, 339.85 K	0.224
in DMSO, 350.15 K	0.233
in DMSO, 354.15 K	0.238
in DMSO, 358.15 K	0.242
in DMSO, 367.15 K	0.261
in NMP, 295.05 K	0.163
in NMP, 318.15 K	0.186
in NMP, 344.45 K	0.207
in NMP, 363.85 K	0.227
in NMP, 371.75 K	0.246
in cyclohexanone, 291.95 K	0.00244
in cyclohexanone, 320.85 K	0.00434
in cyclohexanone, 330.95 K	0.00521
in cyclohexanone, 335.65 K	0.0061
in cyclohexanone, 343.15 K	0.00693
in cyclohexanone, 360.85 K	0.0104
in cyclohexanone, 370.35 K	0.0138
in ethyl acetate, 296.15 K	0.000116
in ethyl acetate, 304.95 K	0.000187
in ethyl acetate, 314.75 K	0.00027
in ethyl acetate, 318.15 K	0.000282
in ethyl acetate, 324.35 K	0.000332
in ethyl acetate, 326.55 K	0.000368
in ethyl acetate, 334.15 K	0.000444
in ethyl acetate, 344.65 K	0.000544
in gamma-butyrolactone, 300.15 K	0.0064
in gamma-butyrolactone, 304.15 K	0.0077
in gamma-butyrolactone, 324.55 K	0.0128
in gamma-butyrolactone, 332.55 K	0.0153
in gamma-butyrolactone, 336.45 K	0.0178
in gamma-butyrolactone, 343.45 K	0.0202
in gamma-butyrolactone, 346.25 K	0.0227
in gamma-butyrolactone, 350.85 K	0.0252
in gamma-butyrolactone, 357.85 K	0.0313
in gamma-butyrolactone, 368.55 K	0.0373
in water, 296.15 K	2e-05
in water, 303.45 K	3.5e-05
in water, 310.75 K	6e-05
in water, 318.65 K	0.000122
in water, 326.15 K	0.000154
in water, 328.55 K	0.000198
in water, 337.95 K	0.000277
in water, 343.15 K	0.000365
in water, 348.75 K	0.000504
